Results reported in ChEMBL document CHEMBL6134778, “Spiro-Azetidine Oxindoles as Long-Acting Injectables for Pre-Exposure Prophylaxis against Respiratory Syncytial Virus Infections” (J Med Chem, 2024).
Converted amounts (≈) assume the structure as drawn.

Key:
[1] = tested on: Respiratory syncytial virus; test: Antiviral activity against RSV A2 harboring eGFP infected in human HeLa cells assessed as reduction in virus replication measured after 3 days by laser microscopy; type: functional, organism-based; details: 72 h
[2] = tested on: Respiratory syncytial virus; test: Antiviral activity against RSV A2 harboring eGFP infected in human HeLa cells assessed as reduction in virus replication by measuring 3X protein-adjusted effective concentration for 90% inhibition measured after 3 days in presence of human serum albumin and alpha(1)-acid glycoprotein by laser microscopy; type: functional; details: time 3 day
HeLa = test: Cytotoxicity against human HeLa cells assessed as reduction in cell viability at highest concentration measured after 3 days by ATPlite assay; type: toxicity, cell-based; details: 72 h, time 3 day
[3] = Chromatographic hydrophobicity index, logD of the compound at pH 7.4 by UPLC analysis; type: physicochemical; details: buffer
[4] = Equilibrium solubility of the compound […] at pH 7 measured after 3 days by LC-MS/MS analysis; type: physicochemical; details: time 3 day
[5] = Thermodynamic solubility in aqueous buffer at pH 7 incubated for 24 hrs by UPLC analysis; type: physicochemical; details: read-out: Therm_solubility
[6] = Intrinsic clearance in human liver microsomes assessed per mg protein at 1 uM measured after 60 mins in presence of NADPH by LC-MS/MS analysis; type: ADME, Microsome; details: read-out: CLH
[7] = Intrinsic clearance in human hepatocytes assessed per million cells at 1 uM measured after 180 mins by LC-MS/MS analysis; type: ADME, cell-based, Hepatocyte; details: read-out: CLH
[8] = Clearance in Sprague-Dawley rat at 1 mg/kg, iv by LC-MS/MS analysis; type: ADME, organism-based; details: in vivo
[9] = Volume of distribution at steady state in Sprague-Dawley rat at 1 mg/kg, iv by LC-MS/MS analysis; type: ADME, organism-based; details: in vivo, read-out: Vdss
Rattus norvegicus [10] = test: Particle size for the 50th percentile of the cumulative volume distribution in Sprague-Dawley rat at 50 mg/kg, IM […]; type: ADME, organism-based; details: in vivo
Rattus norvegicus [11] = test: Release rate constant in Sprague-Dawley rat at 50 mg/kg, IM measured over 12 weeks by LC-MS/MS analysis; type: ADME, organism-based; details: in vivo, 2016 h
[12] = Bioavailability in Sprague-Dawley rat assessed as dose released at 50 mg/kg, IM measured over 12 weeks by LC-MS/MS analysis; type: ADME, organism-based; details: in vivo
[13] = Clearance in Beagle dog at 0.25 mg/kg, iv by LC-MS/MS analysis; type: ADME, organism-based, Canis lupus familiaris; details: in vivo
[14] = Volume of distribution at steady state in Beagle dog at 0.25 mg/kg, iv by LC-MS/MS analysis; type: ADME, organism-based, Canis lupus familiaris; details: in vivo, read-out: Vdss
Canis familiaris [15] = test: Particle size for the 50th percentile of the cumulative volume distribution in Beagle dog at 20 mg/kg, IM […]; type: ADME, organism-based, Canis lupus familiaris; details: in vivo
Canis familiaris [16] = test: Release rate constant in Beagle dog at 20 mg/kg, IM by LC-MS/MS analysis; type: ADME, organism-based, Canis lupus familiaris; details: in vivo
[17] = Bioavailability in Beagle dog assessed as dose released at 20 mg/kg, IM by LC-MS/MS analysis; type: ADME, organism-based, Canis lupus familiaris; details: in vivo
[18] = Clearance in Sprague-Dawley rat at 2.5 mg/kg, iv by LC-MS/MS analysis; type: ADME, organism-based; details: in vivo
[19] = Volume of distribution at steady state in Sprague-Dawley rat at 2.5 mg/kg, iv by LC-MS/MS analysis; type: ADME, organism-based; details: in vivo, read-out: Vdss

Structure (SMILES)	EC50 [1]	protein-adjusted EC90 [2]	Activity (HeLa)	CHI [3]	solubility at 72 h [4]	solubility thermodynamic at 24 h [5]	microsomal CLint at 1 µM [6]	hepatocyte CLint at 1 µM [7]	clearance [8]	Vd [9]	Median particle size (D50) (Rattus norvegicus [10])	Ka (Rattus norvegicus [11])	bioavailability [12]	clearance [13]	Vd [14]	Particle size (D50) (Canis familiaris [15])	Ka (Canis familiaris [16])	bioavailability [17]	clearance [18]	Vd [19]
CC(C)(O)C(=O)N1CC2(C1)C(=O)N(Cc1nc3cc(Cl)ccc3n1CCCC(F)(F)F)c1ccccc12	1000 pM	0.031 µg/mL	Non-toxic	2.84	0.74 µM (≈ 0.396 µg/mL)	< 0.1 µg/mL	< 7.7 µL/min/mg	< 1.2 µL/min/1e6 cells	9.3 mL/min/kg	2.78 L/kg	1.02 um	0.001 h⁻¹	85%	3.56 mL/min/kg	1.77 L/kg	1.03 um	0.003 h⁻¹	102%		
O=C1N(Cc2nc3cc(Cl)ccc3n2CCCC(F)(F)F)c2cnccc2C12CN(S(=O)(=O)C1CC1)C2	430 pM	0.0082 µg/mL	Non-toxic	2.81	< 0.13 µM	< 0.1 µg/mL	< 7.7 µL/min/mg	< 1.2 µL/min/1e6 cells	43.5 mL/min/kg	2.48 L/kg	15.6 um	0.003 h⁻¹	88%	0.99 mL/min/kg	2.65 L/kg	15.6 um	0.01 h⁻¹	93%		
CC(C)NC(=O)N1CC2(C1)C(=O)N(Cc1nc3cc(Cl)ccc3n1CCCC#N)c1ccccc12	580 pM	0.06 µg/mL	Non-toxic	2.37	< 0.25 µM	< 0.1 µg/mL	< 7.7 µL/min/mg	1.5 µL/min/1e6 cells			5.48 um	0 h⁻¹	21%	4.9 mL/min/kg	0.56 L/kg	5.34 um	0.001 h⁻¹	51%	21 mL/min/kg	3.2 L/kg
